Results published in ChEMBL document CHEMBL1139687, “Inhibitory effect of carboxylic acid group on hERG binding” (Bioorg Med Chem Lett, 2006).

biological target: Voltage-gated inwardly rectifying potassium channel KCNH2 (Homo sapiens, UniProt Q12809); assay: Displacement of [3H]dofetilide from human ERG potassium channel expressed in HEK293 cells
Sequence (Q12809 whole entry): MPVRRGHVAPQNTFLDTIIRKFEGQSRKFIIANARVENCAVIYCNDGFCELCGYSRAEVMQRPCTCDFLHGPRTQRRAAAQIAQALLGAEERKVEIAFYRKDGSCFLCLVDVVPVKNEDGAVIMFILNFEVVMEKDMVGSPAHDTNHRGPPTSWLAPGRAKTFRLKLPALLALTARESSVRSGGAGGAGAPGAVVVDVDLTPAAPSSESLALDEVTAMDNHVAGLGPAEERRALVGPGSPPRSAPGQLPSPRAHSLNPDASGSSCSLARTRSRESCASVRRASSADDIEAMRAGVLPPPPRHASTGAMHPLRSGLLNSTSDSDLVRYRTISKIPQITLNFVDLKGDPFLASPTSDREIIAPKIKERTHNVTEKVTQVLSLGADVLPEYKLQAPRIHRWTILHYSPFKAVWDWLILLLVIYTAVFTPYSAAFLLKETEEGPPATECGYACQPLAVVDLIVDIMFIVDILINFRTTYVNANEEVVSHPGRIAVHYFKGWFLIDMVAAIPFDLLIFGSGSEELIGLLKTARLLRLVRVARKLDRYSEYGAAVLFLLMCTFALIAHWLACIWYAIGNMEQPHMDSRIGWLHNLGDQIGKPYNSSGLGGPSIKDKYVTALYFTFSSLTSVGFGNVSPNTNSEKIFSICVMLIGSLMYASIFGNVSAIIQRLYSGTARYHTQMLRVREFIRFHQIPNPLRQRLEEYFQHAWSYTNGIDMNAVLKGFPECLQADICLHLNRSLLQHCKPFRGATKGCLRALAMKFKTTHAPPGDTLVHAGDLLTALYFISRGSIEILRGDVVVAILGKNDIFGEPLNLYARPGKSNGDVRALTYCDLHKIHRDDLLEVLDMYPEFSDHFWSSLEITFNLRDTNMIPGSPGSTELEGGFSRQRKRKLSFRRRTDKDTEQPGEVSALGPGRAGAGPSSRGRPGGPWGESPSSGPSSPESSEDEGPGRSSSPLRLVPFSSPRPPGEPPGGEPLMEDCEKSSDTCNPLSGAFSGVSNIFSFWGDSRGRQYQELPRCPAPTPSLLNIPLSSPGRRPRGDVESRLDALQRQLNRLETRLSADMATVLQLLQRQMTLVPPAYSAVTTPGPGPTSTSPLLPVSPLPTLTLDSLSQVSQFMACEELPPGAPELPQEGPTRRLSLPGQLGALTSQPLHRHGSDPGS

Compared with COC(=O)CCc1ccc(NC(=O)c2ccc(C(=N)N(C)C)cc2)c(C(=O)Nc2ccc(Cl)cn2)c1, CN(C)C(=N)c1ccc(C(=O)Nc2ccc(Cl)cc2C(=O)Nc2ccc(Cl)cn2)cc1 is 7.9-fold lower in Ki: 790 nM for the first, 100 nM for the second.

CN(C)C(=N)c1ccc(C(=O)Nc2ccc(Cl)cc2C(=O)Nc2ccc(Cl)cn2)c(N2CCCCC2C(=O)O)c1 (configuration not stated) and CN(C)C(=N)c1ccc(C(=O)Nc2ccc(Cl)cc2C(=O)Nc2ccc(Cl)cn2)c(N2CCC(C(=O)O)CC2)c1 cannot be ordered by Ki: > 2000 nM for the first, > 10000 nM for the second.

Compared with CN(C)C(=N)c1ccc(C(=O)Nc2ccc(Sc3ccc(C(=O)O)cc3)cc2C(=O)Nc2ccc(Cl)cn2)cc1, CN(C)C(=N)c1ccc(C(=O)Nc2ccc(Sc3ccc(C(=O)N(C)C)cc3)cc2C(=O)Nc2ccc(Cl)cn2)cc1 is 12-fold lower in Ki: 4600 nM for the first, 370 nM for the second.

CN(CCCC(=O)O)C(=N)c1ccc(C(=O)Nc2ccc(Cl)cc2C(=O)Nc2ccc(Cl)cn2)cc1 and CN(CC(=O)O)C(=N)c1ccc(C(=O)Nc2ccc(Cl)cc2C(=O)Nc2ccc(Cl)cn2)cc1 are the same in Ki: 1400 nM for the first, 1400 nM for the second.

Going from COc1cc(Cl)cc(C(=O)Nc2ccc(Cl)cn2)c1NC(=O)c1ccc(C(=N)N2CCC(C(=O)O)CC2)cc1F to CCOC(=O)C1CCN(C(=N)c2ccc(C(=O)Nc3c(OC)cc(Cl)cc3C(=O)Nc3ccc(Cl)cn3)c(F)c2)CC1, the Ki falls from > 10000 nM to 51 nM.

Compared with Cc1cc(C(=O)Nc2ccc(C(=N)N3CCCC3)cc2)n(-c2cc3ccccc3cc2C(=O)O)n1, Cc1cc(C(=O)Nc2ccc(-c3ccccc3CN3CCCCC3)cc2F)n(-c2cc3ccccc3cc2F)n1 is lower in Ki: > 10000 nM for the first, 1000 nM for the second. The second binds more tightly here.

C/C(=C(\F)C(=O)N(CC(=O)O)c1ccc(-c2ccccc2S(N)(=O)=O)cc1)c1cccc(C(=N)N)c1 and CC(=N)N1CCC(Oc2ccc(N(Cc3ccc4ccc(C(=N)N)cc4c3)S(=O)(=O)CC(=O)O)cc2)CC1 [YM-60828] cannot be ordered by Ki: > 10000 nM for the first, > 10000 nM for the second.

First: N=C(c1ccc(C(=O)Nc2ccc(Cl)cc2C(=O)Nc2ccc(Cl)cn2)cc1)N1CCCC(C(=O)O)C1 (configuration not stated)
Second: CCOC(=O)C1CCN(C(=N)c2ccc(C(=O)Nc3ccc(Cl)cc3C(=O)Nc3ccc(Cl)cn3)cc2)CC1
The Ki of the first is higher: > 10000 nM for the first, 17 nM for the second.

Compared with CN(C)C(=N)c1ccc(C(=O)Nc2ccc(Oc3ccc(C(=O)O)cc3)cc2C(=O)Nc2ccc(Cl)cn2)cc1, COC(=O)c1ccc(Oc2ccc(NC(=O)c3ccc(C(=N)N(C)C)cc3)c(C(=O)Nc3ccc(Cl)cn3)c2)cc1 is lower in Ki: > 10000 nM for the first, 570 nM for the second.

CN(C)C(=N)c1ccc(C(=O)Nc2ccc(Cl)cc2C(=O)Nc2ccc(Cl)cn2)c(N(C)CCCC(=O)O)c1 and CN(C)C(=N)c1ccc(CN2C(=O)CN(S(=O)(=O)c3cc4cc(Cl)ccc4[nH]3)C[C@@H]2C(=O)O)cc1 cannot be ordered by Ki: > 6600 nM for the first, > 10000 nM for the second.

First: CN1CCN=C1c1ccc(C(=O)N2CCN(S(=O)(=O)c3cc4ccc(Cl)cc4s3)CC2CC(=O)N2CCCC(C(=O)O)C2)cc1 (configuration not stated)
Second: CN1CCN=C1c1ccc(C(=O)N2CCN(S(=O)(=O)c3cc4ccc(Cl)cc4s3)CC2CC(=O)N2CCOCC2)cc1 (configuration not stated)
The Ki of the first is higher: > 10000 nM for the first, 600 nM for the second. The second binds more tightly here.
